Test systems include A549; ACHN; HCC 2998; IGROV-1; K562; KM12; M14; OVCAR-5; SF-268; SK-MEL-2; SK-MEL-5; SK-OV-3; SN12C; SNB-75; U-251; UACC-257; UACC-62; UO-31; SR.
What all share (test): NCI-60 cell line screen, 48 h

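Interpolation was linear, between the two tested concentrations surrounding the appropriate level; five concentrations were tested over 48 hours in 96-well plates. The concentration for 50% growth inhibition is given as GI50.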 Activity calls are given as the source filed them. Rule as the data show it: active = GI50 up to about 1.1 µM and inactive = higher.

Turning to `Cc1ccccc1-n1c(N)c(-c2nc3ccccc3[nH]2)sc1=S`, the GI50 in the assay with A549 was 31.3 µM (inactive); with ACHN it was 35 µM (inactive); in the assay with HCC 2998 it was 18.3 µM (inactive); in the assay with IGROV-1 it was 24.8 µM (inactive); in the assay with K562 it was 36.6 µM (inactive); in the assay on KM12, 20.7 µM (inactive). Besides, the GI50 in the assay with M14 was 20.5 µM (inactive); with OVCAR-5, 37 µM (inactive); in the assay with SF-268, 29.6 µM (inactive); in the assay on SK-MEL-2, 23.9 µM (inactive); in the assay on SK-MEL-5 it was 20.8 µM (inactive); in the assay with SK-OV-3, 43.4 µM (inactive). Moreover, the GI50 in the assay on SN12C was 26.4 µM (inactive); in the assay on SNB-75 it was 29.4 µM (inactive); in the assay on U-251 it was > 10 µM (inactive); with UACC-257, 19.3 µM (inactive); in the assay with UACC-62, 18.8 µM (inactive); in the assay with UO-31, 23.8 µM (inactive).
Regarding `CC1=CC(=O)N2C(OC[C@@H]2c2ccccc2)O1` (stereo partly specified), the GI50 in the assay with A549, in the assay on ACHN, with IGROV-1, in the assay with K562, in the assay on KM12 and with M14 was > 100 µM (inactive) throughout. Also, the GI50 in the assay with SF-268, in the assay on SK-MEL-2, with SK-MEL-5, with SK-OV-3, with SN12C and in the assay with SNB-75 was > 100 µM (inactive) in each case. For the same compound, the GI50 with SR, with U-251, in the assay with UACC-257, with UACC-62 and with UO-31 was > 100 µM (inactive) throughout.
As to `Cc1ccc(NC(=O)C(=O)CC(=O)c2ccccc2)cc1C`, the GI50 with A549 is > 100 µM (inactive); in the assay with ACHN it was > 100 µM (inactive); with HCC 2998, > 100 µM (inactive); in the assay on IGROV-1, 69.8 µM (inactive); with KM12, 35.8 µM (inactive); in the assay on M14 it was > 100 µM (inactive). Moreover, the GI50 in the assay with OVCAR-5, with SF-268, in the assay on SK-MEL-5, in the assay on SK-OV-3, with SN12C and in the assay on SNB-75 was > 100 µM (inactive) in each case. For the same compound, the GI50 in the assay on U-251 was > 100 µM (inactive); in the assay with UACC-257, > 100 µM (inactive); in the assay with UACC-62, 70.6 µM (inactive); with UO-31, > 100 µM (inactive).
For `O=C(CC(=O)N1N=C(n2ccc3ccccc32)CC1c1ccccc1)Nc1ccccc1Cl` (stereo unspecified), the GI50 in the assay with A549, in the assay on ACHN, with HCC 2998, with IGROV-1, in the assay with K562 and with KM12 was > 100 µM (inactive) in each case. For the same compound, the GI50 with M14, with SF-268, in the assay on SK-MEL-2, with SK-OV-3, in the assay with SN12C and in the assay on SNB-75 was > 100 µM (inactive) in each case. Also, the GI50 with U-251, with UACC-257, in the assay on UACC-62 and in the assay with UO-31 was > 100 µM (inactive) in each case.
`CC(=O)C1(O)CC2(c3ccccc3)C(=O)C1(c1ccccc1)C(c1ccccc1)=C2c1ccccc1` (stereo unspecified): the GI50 in the assay on A549 is 54.6 µM (inactive); in the assay on IGROV-1, > 100 µM (inactive); in the assay with K562, 26.1 µM (inactive); with KM12, > 100 µM (inactive); in the assay with M14, > 100 µM (inactive); in the assay on OVCAR-5, 49.1 µM (inactive). Further, the GI50 was > 100 µM (inactive) with SF-268; 44 µM (inactive) in the assay with SK-MEL-5; > 100 µM (inactive) in the assay on SK-OV-3; > 100 µM (inactive) with SN12C; 38.7 µM (inactive) in the assay with SNB-75; 85.1 µM (inactive) in the assay with SR. The GI50 in the assay with U-251 was 81.3 µM (inactive); in the assay with UACC-257, 35.6 µM (inactive); with UACC-62, 79.4 µM (inactive); with UO-31, 58.5 µM (inactive).
On to `COc1cc(C2C(Cl)C(=O)N2NC(=O)c2ccc(NC(C)=O)cc2)ccc1O` (stereo unspecified), for which the GI50 in the assay with A549, with ACHN, with IGROV-1, with K562, in the assay with M14 and in the assay with OVCAR-5 was > 100 µM (inactive) in each case. Besides, the GI50 in the assay on SF-268, in the assay with SK-MEL-2, with SK-MEL-5, in the assay on SK-OV-3, in the assay with SN12C and in the assay on U-251 was > 100 µM (inactive) throughout. The GI50 with UACC-257, in the assay on UACC-62 and with UO-31 was > 100 µM (inactive) in each case.
Turning to `CC(C)(C)C(=C[S+]([O-])/N=C/c1ccccc1)C(C)(C)C` (stereo unspecified), the GI50 was 33.4 µM (inactive) with A549; 36.8 µM (inactive) in the assay with ACHN; 25.8 µM (inactive) in the assay with IGROV-1; 1.23 µM (inactive) with K562; 44.6 µM (inactive) in the assay with KM12; 40.2 µM (inactive) with M14. Moreover, the GI50 was 48.6 µM (inactive) in the assay with OVCAR-5; 49.4 µM (inactive) in the assay on SF-268; 15.9 µM (inactive) with SK-MEL-2; 24.3 µM (inactive) in the assay with SK-MEL-5; 26.6 µM (inactive) with SK-OV-3; 21.1 µM (inactive) with SN12C. Besides, the GI50 with SNB-75 was 16.4 µM (inactive); in the assay on SR, 24.7 µM (inactive); in the assay with U-251, 25.1 µM (inactive); with UACC-257, 52 µM (inactive); in the assay with UO-31 it was 27.2 µM (inactive).
For `c1cc2ccc1C1NCCCN1CCN1CCCNC1c1ccc(cc1)C1NCCCN1CCN1CCCNC21` (stereo unspecified), the GI50 was > 100 µM (inactive) with A549; > 100 µM (inactive) with ACHN; > 100 µM (inactive) with IGROV-1; 37 µM (inactive) with K562; > 100 µM (inactive) in the assay on KM12; 99.8 µM (inactive) in the assay on M14. Besides, the GI50 in the assay with OVCAR-5, in the assay with SF-268, with SK-MEL-2, in the assay on SK-MEL-5, in the assay on SK-OV-3 and in the assay on SN12C was > 100 µM (inactive) throughout. In addition, the GI50 in the assay with SNB-75 is > 100 µM (inactive); in the assay with U-251, 54.2 µM (inactive); with UACC-257, > 100 µM (inactive); in the assay with UACC-62, > 100 µM (inactive); in the assay with UO-31, > 100 µM (inactive).
On to `O=S(=O)(CC1=NC2C=CC=CC2N=C1)NCc1ccccc1` (stereo unspecified), for which the GI50 is > 100 µM (inactive) with A549; > 100 µM (inactive) with ACHN; 0.0156 µM (active) with HCC 2998; > 100 µM (inactive) with IGROV-1; > 100 µM (inactive) in the assay on K562; > 100 µM (inactive) in the assay on KM12. For the same compound, the GI50 is > 100 µM (inactive) with M14; > 100 µM (inactive) in the assay with OVCAR-5; > 100 µM (inactive) in the assay on SF-268; > 100 µM (inactive) in the assay on SK-MEL-2; 40 µM (inactive) with SK-MEL-5; > 100 µM (inactive) in the assay on SK-OV-3. Further, the GI50 in the assay with SN12C, in the assay on SNB-75, in the assay with U-251 and in the assay on UACC-62 was > 100 µM (inactive) in each case.
Take `N#CCC(=O)N1CCCOCCC1`: the GI50 with A549, in the assay with ACHN, in the assay with HCC 2998, with IGROV-1, in the assay with K562 and with KM12 was > 100 µM (inactive) throughout. Further, the GI50 in the assay with M14, with OVCAR-5, in the assay on SF-268, with SK-MEL-2, in the assay on SK-MEL-5 and in the assay with SK-OV-3 was > 100 µM (inactive) in each case. In addition, the GI50 in the assay on SN12C, in the assay on U-251, in the assay on UACC-257, with UACC-62 and with UO-31 was > 100 µM (inactive) in each case.
`CC(C)N1CN(C(C(=O)N[C@@H]2C(=O)N3C2SC(C)(C)C3C(=O)O)c2ccc(O)cc2)CSC1=S` (stereo partly specified): the GI50 was > 100 µM (inactive) with ACHN; > 100 µM (inactive) in the assay with IGROV-1; 31.8 µM (inactive) in the assay on K562; > 100 µM (inactive) in the assay on KM12; > 100 µM (inactive) in the assay with M14; > 100 µM (inactive) with OVCAR-5. The GI50 in the assay with SF-268, in the assay on SK-MEL-2, in the assay on SK-MEL-5, in the assay on SK-OV-3, with SN12C and in the assay with SNB-75 was > 100 µM (inactive) each time. The GI50 in the assay on U-251, with UACC-257, in the assay on UACC-62 and in the assay with UO-31 was > 100 µM (inactive) throughout.
As for `C#Cc1c(C)c(/C=C/C(C)=C/C(=O)OC)n(C)c1C`, the GI50 with A549 is > 100 µM (inactive); in the assay with ACHN, 43.7 µM (inactive); in the assay with HCC 2998 it was 59 µM (inactive); in the assay on IGROV-1, > 100 µM (inactive); in the assay on K562, 24.2 µM (inactive); with KM12, > 100 µM (inactive). In addition, the GI50 in the assay on M14 is > 100 µM (inactive); with OVCAR-5 it was > 100 µM (inactive); in the assay on SF-268, 79.3 µM (inactive); with SK-OV-3, > 100 µM (inactive); in the assay with SN12C it was > 100 µM (inactive); with U-251 it was > 100 µM (inactive). For the same compound, the GI50 with UACC-257 is > 100 µM (inactive); in the assay with UACC-62 it was 94.6 µM (inactive); in the assay on UO-31 it was > 100 µM (inactive).
